# Laboratory results: PMC3510433, “Adamantyl carboxamides and acetamides as potent human 11β-hydroxysteroid dehydrogenase type 1 inhibitors” (Bioorganic & Medicinal Chemistry, 2012)
# Entries after “also recorded” stand apart in the source; their conditions may differ. Marks after values point to notes of the source that are not given here.
# Key:
# human 11β-HSD1 = target: T1, human 11β-HSD1 (Homo sapiens, UniProt P28845); test: 11β-HSD1 inhibition, human HEK-293 cell based assay (SPA); conditions: for IC50: HEK-293 cells stably transfected with HSD11B1, mean of 3 measurements
# T1 construct: expressed in transfected cells; host or cells: HEK-293 (human), stably transfected
# T1 sequence (P28845 whole entry): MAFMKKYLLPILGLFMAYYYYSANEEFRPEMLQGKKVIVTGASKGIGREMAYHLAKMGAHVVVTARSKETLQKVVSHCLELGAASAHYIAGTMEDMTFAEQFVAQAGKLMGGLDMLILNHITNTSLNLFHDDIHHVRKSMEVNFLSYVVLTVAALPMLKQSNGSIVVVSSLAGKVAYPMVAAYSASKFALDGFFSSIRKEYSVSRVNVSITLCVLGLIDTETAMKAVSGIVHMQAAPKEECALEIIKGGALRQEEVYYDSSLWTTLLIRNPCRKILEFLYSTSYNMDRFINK
# Description: 11β-HSD1 inhibition was measured in intact human HEK-293 cells to reveal the true inhibitory activity. Differences in observed effects for different compounds may reflect combinatorial factors including the ability to penetrate the cell membrane, the stability within the cell and the binding ability to the enzyme.
# The cell-based assays were conducted on the human HEK-293 cell line stably transfected with the HSD11B1 gene.[28] 11β-HSD1 activity was determined by measuring the amount of tritiated product formed using a scintillation proximity assay (SPA).
# Cells were incubated in 96-well micro-plates in the presence of tritiated cortisone substrate and the assay plates contained internal high and low controls to allow calculation of percentage inhibition. Each well of a 96-well culture plate was seeded with human 11β-HSD1 overexpressed HEK293 cells in 100 μL medium. When the cells were 80% confluent, the medium was removed from each well then 100 μL of fresh, serum-free, medium containing ^3H-cortisone (22 nM) and test compound in 1% DMSO was added. The control wells were also dispensed. […] The plate was incubated at 37 °C for 2 h, after which 50 μL of medium was removed from each well and transferred to a microplate containing 100 μL of a pre-incubated mixture of anti-cortisol antibody and SPA bead. The mixture was incubated with gentle shaking until equilibrium was reached, before transferring to a scintillation counter to establish the enzyme activity in each sample.
# The compounds were initially tested at a concentration of 1 μM. Those compounds showing over 70% inhibition of 11β-HSD1 at 1 μM were subjected to an IC50 measurement. A Merck compound 544 was used as the reference compound in the assay (IC50 = 50 ± 20 nM).[19] The IC50 values are reported as the mean value of 3 measurements with variance less than 20%. IC50 values were calculated from the dose-response curve using Microsoft Excel add-in XLfit with a Four Parameter Logistic nonlinear regression model.
# [1] = target: T2, human cytochrome P450 1A2 (Homo sapiens, UniProt P05177); test: Inhibition of human cytochrome P450 1A2; assay type: in vitro ADME; conditions: for IC50: mean value of two measurements; for Percentage inhibition of 1A2: 10 μM
# T2 sequence (P05177 1-516): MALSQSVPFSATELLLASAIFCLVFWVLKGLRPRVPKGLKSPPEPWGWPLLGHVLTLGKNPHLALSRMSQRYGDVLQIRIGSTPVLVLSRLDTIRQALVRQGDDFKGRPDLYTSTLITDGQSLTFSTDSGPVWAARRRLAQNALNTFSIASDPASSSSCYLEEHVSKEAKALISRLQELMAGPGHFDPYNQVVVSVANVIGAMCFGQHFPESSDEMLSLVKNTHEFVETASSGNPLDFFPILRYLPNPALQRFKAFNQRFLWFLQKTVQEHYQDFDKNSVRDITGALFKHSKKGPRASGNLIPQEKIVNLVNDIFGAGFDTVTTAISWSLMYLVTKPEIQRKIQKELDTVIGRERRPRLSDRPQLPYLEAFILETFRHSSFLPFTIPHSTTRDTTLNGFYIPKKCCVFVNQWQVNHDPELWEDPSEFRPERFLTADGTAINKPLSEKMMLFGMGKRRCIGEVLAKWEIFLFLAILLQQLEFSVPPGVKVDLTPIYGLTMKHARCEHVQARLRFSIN
# Text: (§1) To identify potential problems with these compounds interfering with the metabolism of other drugs, compounds 3, 4, 15 and 41 were studied for their inhibition of the key human cytochrome P450 enzymes: 1A2, 2C9, 2C19, 2D6, 3A4-BFC (7-benzyloxy-4-(trifluoromethyl)coumarin) and 3A4-BQ (7-benzyloxyquinoline) (Table 6).
# [2] = target: human cytochrome P450 2C9 (Homo sapiens, UniProt P11712); test: Inhibition of human cytochrome P450 2C9; assay type: in vitro ADME; conditions: for IC50: mean value of two measurements; for Percentage inhibition of 2C9: 10 μM
# Chain of human cytochrome P450 2C9 (P11712 whole entry): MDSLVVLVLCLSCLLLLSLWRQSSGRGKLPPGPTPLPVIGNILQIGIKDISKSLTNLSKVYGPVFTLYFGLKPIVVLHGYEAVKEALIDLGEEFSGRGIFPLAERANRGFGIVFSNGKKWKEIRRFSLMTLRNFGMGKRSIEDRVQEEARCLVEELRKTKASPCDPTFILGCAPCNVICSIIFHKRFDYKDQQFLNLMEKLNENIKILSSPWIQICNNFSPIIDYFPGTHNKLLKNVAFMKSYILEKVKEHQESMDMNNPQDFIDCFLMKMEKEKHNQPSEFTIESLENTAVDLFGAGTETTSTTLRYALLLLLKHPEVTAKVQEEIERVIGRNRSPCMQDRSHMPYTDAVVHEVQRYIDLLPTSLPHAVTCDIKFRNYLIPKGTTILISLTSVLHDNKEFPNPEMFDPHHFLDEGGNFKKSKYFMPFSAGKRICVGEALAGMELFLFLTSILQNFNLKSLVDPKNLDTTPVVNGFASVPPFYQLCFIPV
# Text: as §1
# [3] = target: human cytochrome P450 2C19 (Homo sapiens, UniProt P33261); test: Inhibition of human cytochrome P450 2C19; assay type: in vitro ADME; conditions: for IC50: mean value of two measurements; for Percentage inhibition of 2C19: 10 μM
# Chain of human cytochrome P450 2C19 (P33261 whole entry): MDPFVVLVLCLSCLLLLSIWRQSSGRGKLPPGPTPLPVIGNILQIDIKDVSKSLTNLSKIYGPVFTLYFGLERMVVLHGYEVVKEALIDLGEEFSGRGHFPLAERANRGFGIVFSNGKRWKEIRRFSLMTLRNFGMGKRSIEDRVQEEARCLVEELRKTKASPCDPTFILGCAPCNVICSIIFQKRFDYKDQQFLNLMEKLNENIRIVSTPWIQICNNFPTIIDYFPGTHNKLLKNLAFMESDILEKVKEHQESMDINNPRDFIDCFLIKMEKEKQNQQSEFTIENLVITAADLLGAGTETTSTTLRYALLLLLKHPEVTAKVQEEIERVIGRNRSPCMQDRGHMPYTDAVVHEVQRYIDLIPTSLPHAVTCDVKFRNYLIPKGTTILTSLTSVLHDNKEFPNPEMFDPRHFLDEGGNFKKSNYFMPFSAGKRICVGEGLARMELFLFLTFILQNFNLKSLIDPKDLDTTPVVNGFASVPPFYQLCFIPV
# Text: as §1
# [4] = target: human cytochrome P450 2D6 (Homo sapiens, UniProt P10635); test: Inhibition of human cytochrome P450 2D6; assay type: in vitro ADME; conditions: for IC50: mean value of two measurements; for Percentage inhibition of 2D6: 10 μM
# Chain of human cytochrome P450 2D6 (P10635 whole entry): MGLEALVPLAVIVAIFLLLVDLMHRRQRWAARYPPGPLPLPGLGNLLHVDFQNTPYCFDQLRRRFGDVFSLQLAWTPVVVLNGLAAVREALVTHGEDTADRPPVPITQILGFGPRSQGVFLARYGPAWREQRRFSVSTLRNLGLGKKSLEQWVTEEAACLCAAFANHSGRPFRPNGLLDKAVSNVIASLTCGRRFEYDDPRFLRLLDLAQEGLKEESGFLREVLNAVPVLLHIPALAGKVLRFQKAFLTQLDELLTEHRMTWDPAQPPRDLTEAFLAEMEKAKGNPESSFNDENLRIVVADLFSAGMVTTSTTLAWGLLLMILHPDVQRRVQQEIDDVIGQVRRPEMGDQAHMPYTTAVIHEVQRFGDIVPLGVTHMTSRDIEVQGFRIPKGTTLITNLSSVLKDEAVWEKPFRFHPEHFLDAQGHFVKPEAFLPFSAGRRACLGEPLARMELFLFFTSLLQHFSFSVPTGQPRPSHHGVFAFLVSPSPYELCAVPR
# Text: as §1
# [5] = target: human cytochrome P450 3A4-BFC (Homo sapiens, UniProt P08684); test: Inhibition of human cytochrome P450 3A4-BFC (7-benzyloxy-4-(trifluoromethyl)coumarin); assay type: in vitro ADME; conditions: mean value of two measurements
# Chain of human cytochrome P450 3A4-BFC (P08684 whole entry): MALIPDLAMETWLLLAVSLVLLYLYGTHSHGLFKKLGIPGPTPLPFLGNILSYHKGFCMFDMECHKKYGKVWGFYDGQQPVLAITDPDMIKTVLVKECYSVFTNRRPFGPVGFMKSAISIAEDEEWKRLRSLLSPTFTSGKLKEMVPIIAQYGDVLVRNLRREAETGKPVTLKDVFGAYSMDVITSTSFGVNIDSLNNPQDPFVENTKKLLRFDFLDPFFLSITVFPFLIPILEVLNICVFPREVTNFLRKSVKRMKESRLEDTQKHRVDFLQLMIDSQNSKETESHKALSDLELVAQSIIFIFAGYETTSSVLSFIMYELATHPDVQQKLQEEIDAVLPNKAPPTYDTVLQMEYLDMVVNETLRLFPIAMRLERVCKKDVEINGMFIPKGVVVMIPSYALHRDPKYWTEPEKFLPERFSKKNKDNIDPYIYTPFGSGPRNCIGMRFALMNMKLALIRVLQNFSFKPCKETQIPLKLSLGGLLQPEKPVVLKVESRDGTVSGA
# Text: as §1
# [6] = target: human cytochrome P450 3A4-BQ (Homo sapiens, UniProt P08684); test: Inhibition of human cytochrome P450 3A4-BQ (7-benzyloxyquinoline); assay type: in vitro ADME; conditions: for IC50: mean value of two measurements; for Percentage inhibition of 3A4-BQ: 10 μM
# Chain of human cytochrome P450 3A4-BQ (P08684 whole entry): as above
# Text: as §1
# [7] = tested on: key human cytochrome P450 enzymes; test: Inhibition of the key human cytochrome P450 enzymes (panel, summary statements); assay type: in vitro ADME
# Text: as §1
# [8] = Stability in incubation with human liver microsomes; assay type: in vitro ADME; conditions: 37 °C, NADPH; for half-life: 40 min
# Description: Potent inhibitors (3 and 15) were incubated at 37 °C for 40 min with human liver microsomes in the presence of the cofactor NADPH to evaluate their stability under such conditions. The remaining parent compound was measured using a HPLC method.
# [9] = tested on: CYP 2CA (so in the source), CYP3A4; test: Inhibition of the key human cytochrome P450 enzymes (panel, summary statements); assay type: in vitro ADME; conditions: human; 2CA, 3A4-BFC and 3A4-BQ
# Text: as §1
# [10] = Membrane permeability, Caco-2 cell model; assay type: in vitro ADME; conditions: human, Caco-2; apical to basolateral, 20 μM
# Text: (§2) Compound 3 was studied for its membrane permeability using the Caco-2 cell model.
# Caco-2 cell model = test: Membrane permeability, Caco-2 cell model; assay type: in vitro ADME; conditions: Caco-2, 20 μM
# Text: as §2
IC50 (human 11β-HSD1) [µM],fold more potent than compound 16 (human 11β-HSD1; N-methyl amide vs NH analogue 16),IC50 [1] [µM],IC50 [2] [µM],IC50 [3] [µM],IC50 [4] [µM],IC50 [5] [µM],IC50 [6] [µM],half-life [8] [h],IC50 [9] [µM],Percentage inhibition of 1A2 [1] [% ^a],Percentage inhibition of 2C9 [2] [% ^a],Percentage inhibition of 2C19 [3] [% ^a],Percentage inhibition of 2D6 [4] [% ^a],Percentage inhibition of 3A4-BQ [6] [% ^a],activity against 2C9 and 3A4-BFC (in words) ([7]; 2C9 and 3A4-BFC),Papp A→B at 20 μM [10] [×10⁻⁶ cm/s],permeability (in words) (Caco-2 cell model),Compound,"inhibition of the key human cytochrome P450 enzymes (in words) ([7]; 1A2, 2C9, 2C19, 2D6, 3A4-BFC, 3A4-BQ)",stability with human liver microsomes (in words) [8]
0.114,over 15 times,> 100,> 100,> 100,> 100,19,18,1 to 1.17,–,–,–,–,–,–,–,–,–,"CN(Cc1cccn1C)C(=O)C12CC3CC(CC(C3)C1)C2 [Compound 15, N-Methyl-N-((1-methyl-1H-pyrrol-2-yl)-methyl)adamantane-1-carboxamide]",weak inhibitory activity; also recorded: very weak inhibition; also recorded: very weak inhibitory activity,moderate stability; also recorded: moderately stable; also recorded: relatively stable
0.28,–,> 100,4.5,> 100,72,7.3,1.6,–,1.6 to 7.3,–,–,–,–,–,–,–,–,"Cc1ccc(C2(C(=O)N(C)Cc3cccs3)CC2)cc1 [Compound 41, N-Methyl-N-(thiophen-2-ylmethyl)-1-p-tolylcyclopropanecarboxamide]",–,–
0.229,–,–,–,–,–,10,–,1 to 1.17,–,6,62,13,2,34,weak activity,33,high permeability,CN(Cc1cccs1)C(=O)C12CC3CC(CC(C3)C1)C2 [Compound 3],–,moderately stable
0.308,–,–,–,–,–,0.15,–,–,–,1,49,80,9,66,–,–,–,"CN(Cc1cccs1)C(=O)CC12CC3CC(CC(C3)C1)C2 [Compound 4, 2-(Adamantan-1-yl)-N-methyl-N-(thiophen-2-ylmethyl)acetamide]",–,–
